From patent publication US10863748B2, “Antibacterial products and processes for preparing antibacterial products from maple syrup” (priority 2016, dated 2020)

Tested on: three bacteria and one yeast
Assay: Antimicrobial effect of melamine per se
Format: cell-based

With `Nc1nc(N)nc(N)n1` [melamine, 2,4,6-triamino-1,3,5-triazine] the antimicrobial effect was “did not exhibit any antimicrobial effect”.
